Source: the COVID Moonshot data (paper PMC11187573), “Identification of SARS-CoV-2 Mpro inhibitors through deep reinforcement learning for de novo drug design and computational chemistry approaches” (RSC Medicinal Chemistry, 2024)

Legend:
[1] = target: SARS-CoV-2 Main Protease (SARS-CoV-2) (UniProt P0DTD1)
[2] = target: SARS-CoV-2 Main Protease (SARS-CoV-2) (UniProt P0DTD1); remark: listed apart in the source
trypsin = trypsin (UniProt P07477)
Chain of trypsin (P07477 whole entry, looked up): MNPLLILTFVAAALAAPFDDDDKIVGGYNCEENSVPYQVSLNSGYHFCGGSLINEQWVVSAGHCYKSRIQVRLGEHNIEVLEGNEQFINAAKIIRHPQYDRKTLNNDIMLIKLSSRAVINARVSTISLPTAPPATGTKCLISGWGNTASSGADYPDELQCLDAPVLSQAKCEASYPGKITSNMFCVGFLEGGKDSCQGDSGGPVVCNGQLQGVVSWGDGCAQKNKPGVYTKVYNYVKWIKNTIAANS

Row | SMILES | inhibition ([1]; 20.0 µM) [%] | inhibition ([1]; 50.0 µM) [%] | IC50 [2] [µM] | inhibition ([2]; 50.0 µM) [%] | IC50 (trypsin) [µM] | relative solubility at 20 uM | relative solubility at 100 uM | inhibition ([2]; 20.0 µM) [%]
1 | C=CC(=O)N(c1ccc(C(C)(C)C)cc1)C(C(=O)Nc1ccc2c(c1)OCO2)c1cccnc1 (centres undefined) | 41.1 | 60.4 | 62.1 | 100 | 72.5 | – | – | –
2 | O=C(CCl)N1CCN(Cc2cc(Cl)ccc2CNC(=O)N2CCOCC2)CC1 | 77.2 | 79 | 5.55 | 93.3 | 15.8 | 0.98 | 0.94 | –
3 | C=CC(=O)N(c1ccc(C2(C)CC2)cc1)C(C(=O)Nc1ccc(Br)cc1)c1cccnc1 (centres undefined) | – | 47.1 | 19.4 | 67.8 | 58.2 | 1 | 1.01 | 2.51
4 | O=C(CCl)N1CCCc2cc(NCc3ccc(F)cc3Cl)ccc21 | 25.3 | 52.5 | – | – | 51.8 | 0.81 | 0.39 | 47.9
5 | COc1cc(CN2CCN(C(=O)CCl)CC2)c2ccccc2c1 | 82.8 | 90.9 | 1.62 | 100 | 81.7 | 1 | 0.95 | –
6 | O=C(CCl)N1CCN(Cc2nc(-c3cccs3)no2)CC1 | 6.55 | 17 | – | 0 | – | 0.98 | 0.93 | –
7 | Cc1ccncc1NC(=O)CC(C)(C)NC(=O)c1cccc2[nH]ccc12 | – | -10.4 | – | 0 | – | 0.99 | 0.99 | 0
8 | C=CC(=O)N(c1ccc(C(C)(C)C)cc1)C(C(=O)NC(C)(C)C)c1cncc(OC)c1C (centres undefined) | 8.6 | 28.6 | – | 39 | – | 0.99 | 0.95 | 8.1
9 | O=C(CC(=O)Nc1ccncc1)Nc1ccccc1 | – | 12 | – | 0 | – | 1 | 1 | 0
10 | Cc1ccncc1NC(=O)Nc1cccc(Cl)c1 | 32.1 | 58.7 | 45.7 | 64.1 | – | 0.99 | 0.96 | 25.6
11 | Cc1nc(CCn2c(C3CCC(=O)N3)nnc2N2CCOC(C)(C)C2)n[nH]1 (centres undefined) | -0.233 | 2.23 | – | 4.69 | – | 1 | 1 | –
12 | CS(=O)(=O)c1oc(-c2ccc(F)cc2)nc1S(=O)(=O)c1ccc(Cl)cc1 | 10.8 | 11 | – | 0 | – | 0.78 | 0.45 | –
13 | CS(=O)(=O)NCCCN1CCCc2ccc(S(N)(=O)=O)cc21 | – | -23.8 | – | 0 | – | 1 | 1 | 0
14 | CC(=O)N1CCN(S(=O)(=O)c2ccsc2)CC1 | – | -20.6 | – | 3.62 | – | 0.99 | 1 | 0
15 | CCOc1ccccc1OC1CCN(C(=O)c2cc(=O)[nH]c3ccc(F)cc23)C1 (centres undefined) | 6.76 | 18.2 | – | 0 | – | 1 | 0.99 | –
16 | O=C1C(=O)N(Cc2ccc(Br)cc2)c2c(Br)cccc21 | 1.5 | -1.15 | 0.485 | 100 | – | 0.99 | 0.97 | –
17 | C=CC(=O)N(c1ccc(S(F)(F)(F)(F)F)cc1)C(C(=O)Nc1c(C)cccc1CC)c1cccnc1 (centres undefined) | 3.13 | 7.07 | – | – | – | 0.85 | 0.73 | 4.69
18 | NS(=O)(=O)c1ccc(N2CCC(c3ccco3)CC2)cc1 | 5.4 | 8.47 | – | 38.9 | – | 1 | 0.83 | 45.9
19 | C=CC(=O)N(c1ccc(C(C)C)nc1)C(C(=O)Nc1ccc(OC)cc1C)c1cccnc1 (centres undefined) | 6.56 | 10.4 | – | – | – | 0.98 | 0.93 | 0
20 | COc1ccc(C2CC(c3cccs3)=NN2C(=O)CCl)cc1OC (centres undefined) | 99.4 | 99.2 | 0.969 | 91.1 | – | 0.95 | 0.83 | 95.7
